{"source": "patent US20210386668A1", "about": "“Cyclodextrin for use in the treatment and prevention of late phase bronchoconstriction in allergen-induced asthma” (Universite de Liege, priority 2020, published 2021)", "tested_on": "mild to moderate asthmatic patients sensitized to HDM", "experiment": "Phase 2a proof of concept clinical trial, HDM allergen challenge (FEV1)", "assay_type": "in vivo, human", "text": "Seventeen mild to moderate asthmatics sensitized to HDM were included in a double blind crossover study comprising allergen challenges with HDM. […] These experiments show a significant effect of HPBCD inhalation on the prevention of allergen-induced FEV1 decrease during the late phase.\nClinical trial protocols have been approved by an independent ethical committee (CHU Liege—University of Liege) in accordance with GCPs, Declaration of Helsinki and European regulations (EudraCT). All participants gave written informed consent before any study-specific procedure. For the phase 1 clinical trial, 8 healthy subjects (4 women and 4 men) from 18 to 40 years were recruited and enrolled in the study at the University Hospital of Liege (Belgium). Patients were randomized and received first the placebo (NaCl 0.9%) or HPBCD at 2.5 mM and 8 days after, the opposite treatment. After 1 week, all patients received HPBCD at 15 mM. One month later, all patients received HPBCD at 15 mM during 5 consecutive days. Apyrogenic and sterile HPBCD powder was diluted with NaCl 0.9% before inhalation (8 ml) with an ultrasonic nebulizer (Devilbiss 2000). General symptoms, asthma scores (ACQ), dyspnea, chest Rx, clinical biology, ECG, vital signs, spirometry, NO, sputum (induced by NaCl 4.5%) were analyzed after treatment periods. The second clinical trial (phase 2a-proof of concept) was a double-blinded, cross-over, placebo-controlled study. 17 mild to moderate asthmatic patients were included in the study at two different sites (University Hospital of Liege and University Hospital Erasme) in Belgium. Characterization visits consisted of dyspnea symptoms recording, ECG, chest Rx, clinical biology, spirometry and vital signs analysis. PD20 (provocative dose that causes a 20% fall in FEV1 from the saline alone value) to inhaled allergen was determined. […] The PD20 of the allergen was calculated from a cumulative dose-response curve, as described previously, Cataldo et al., Matrix metalloproteinase-9, but not tissue inhibitor of matrix metalloproteinase-1, increases in the sputum from allergic asthmatic patients after allergen challenge, Chest. 2002; 122(5):1553-9. All […] received a cumulative concentration of Dermatophagoides pteronyssinus with a reactivity index of 6. After 14 days wash-out period, patients were randomly divided into two groups and received either HPBCD 15 mM or Placebo (NaCl 0.9%) by inhalation (ultrasonic nebulizer (Devilbiss 2000)) twice daily. At the end of this treatment period, lung function (FEV1) was analyzed after allergen (HDM) challenge under the supervision of experienced respiratory clinical physiologists. FEV1 was measured after allergen inhalation challenge at 5, 15, 30, 60, 120, 180, 240, 300 and 360 min. After 28 days wash-out period, patients received the opposite treatment for another 14 days and the FEV1 following allergen challenge was evaluated. All clinical parameters were examined after each treatment period. The endpoint of this proof of concept study was changes in FEV1 over 0-360 min post-allergen challenges. FEV1 in early phase (0-60 min) and late phase (180-360 min) were expressed as: area under the FEV1-versus-time curve (AUC), maximum percentage fall and average percentage fall (calculated by dividing the area under the curve of the percentage fall in FEV1 by the duration of the response period). One patient who received placebo had negative maximum FEV1 decrease and negative average percentage fall in FEV1. These negative values were truncated to 0. Patients had access to […] (salbutamol 100 μg) throughout the study as an «as needed» treatment. […]"}
{"smiles": "CC(O)COC[C@H]1O[C@@H]2O[C@H]3[C@H](O)[C@@H](O)[C@@H](O[C@H]4[C@H](O)[C@@H](O)[C@@H](O[C@H]5[C@H](O)[C@@H](O)[C@@H](O[C@H]6[C@H](O)[C@@H](O)[C@@H](O[C@H]7[C@H](O)[C@@H](O)[C@@H](O[C@H]8[C@H](O)[C@@H](O)[C@@H](O[C@H]1[C@H](O)[C@H]2O)O[C@@H]8COCC(C)O)O[C@@H]7COCC(C)O)O[C@@H]6COCC(C)O)O[C@@H]5COCC(C)O)O[C@@H]4COCC(C)O)O[C@@H]3COCC(C)O", "note": "(stereo partly drawn) [HPBCD, 2-hydroxypropyl-beta-cyclodextrin]", "values": [{"measurement": "decrease in FEV1 after HDM challenge (AUC 0-360 min)", "setting": "HPBCD 15 mM inhalation twice daily vs placebo, FIG. 5B", "value": "lower decrease in FEV1"}, {"measurement": "maximum FEV1 decrease after HDM challenge", "setting": "HPBCD 15 mM vs placebo, FIG. 5D", "value": "significantly lower"}, {"measurement": "average percentage FEV1 decrease after HDM challenge", "setting": "HPBCD 15 mM vs placebo, FIG. 5E", "value": "significantly lower"}, {"measurement": "hematology, serum biochemistry, urinalysis, vital signs, ECG tests and chest X-ray", "setting": "between treatment groups", "value": "No significant changes"}, {"measurement": "FEV1 decrease during the early bronchoconstriction phase", "setting": "early phase 0-60 min, HPBCD vs placebo", "value": "No significant differences"}, {"measurement": "prevention of FEV1 decrease during the late phase reaction (AUC)", "setting": "late phase 180-360 min, HPBCD 15 mM vs placebo, FIG. 5C", "value": "predominant effect"}]}
